# Laboratory results from patent publication US20090118274A1, “MONOCYCLIC AMINOPROPYL TETRAHYDRO-PYRAZOLO-PYRIDINE MODULATORS OF CATHEPSIN S” (priority 2007, published 2009).
# Target: T1, Recombinant human cathepsin S (CatS) (Homo sapiens, UniProt P25774)
# T1 construct: made in house
# Test: Recombinant human cathepsin S (CatS) fluorogenic substrate inhibition assay
# Type: biochemical
# Settings: not given
# Procedure: Recombinant human cathepsin S (CatS) was expressed in the baculovirus system and purified in one step with a thiopropyl-sepharose column. […] The assay is run in 150 mM sodium acetate pH 5.0 containing 1.5 mM DTT and 150 mM NaCl. […] Measurements are taken every min for 20 min. The rate is calculated from the slope of the increase in fluorescence and the percent inhibition is calculated from this.
# T1 sequence (P25774 115-331): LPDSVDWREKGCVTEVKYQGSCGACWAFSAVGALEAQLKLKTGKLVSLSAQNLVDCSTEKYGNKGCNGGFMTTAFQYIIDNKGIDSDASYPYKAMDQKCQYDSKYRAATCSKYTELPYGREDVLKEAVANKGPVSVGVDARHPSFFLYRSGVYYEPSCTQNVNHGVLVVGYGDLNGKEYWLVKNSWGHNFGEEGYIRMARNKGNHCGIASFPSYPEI
row,Structure (SMILES),IC50 [nM]
1,"CS(=O)(=O)N1CCc2c(c(-c3ccc(C(F)(F)F)c(CNC(=O)Oc4ccccc4)c3)nn2CC(O)CN2CCCC2)C1 (centres unmarked) [Example 116, {5-[1-(2-Hydroxy-3-pyrrolidin-1-yl-propyl)-5-methanesulfonyl-4,5,6,7-tetrahydro-1H-pyrazolo[4,3-c]pyridin-3-yl]-2-trifluoromethyl-benzyl}-carbamic acid phenyl ester]",520
2,"CS(=O)(=O)N1CCc2c(c(-c3ccc(Cl)c(CNC(=O)c4ccccc4)c3)nn2CCCN2CCCC2)C1 [Example 2, N-{2-Chloro-5-[5-methanesulfonyl-1-(3-pyrrolidin-1-yl-propyl)-4,5,6,7-tetrahydro-1H-pyrazolo[4,3-c]pyridin-3-yl]-benzyl}-benzamide]",320

# Same assay, conditions: average of results obtained; substrate Z-Valine-Valine-Arginine-AMC 10 μM, pH 5.0; read-out: CatS IC50
row,Structure (SMILES),IC50 [nM]
1,"CS(=O)(=O)N1CCc2c(c(-c3ccc(C(F)(F)F)c(CNC(=O)C4CCCCCC4)c3)nn2CCCN2CCC3(CCNC3=O)CC2)C1 [Example 158, Cycloheptanecarboxylic acid 5-{5-methanesulfonyl-1-[3-(1-oxo-2,8-diaza-spiro[4.5]dec-8-yl)-propyl]-4,5,6,7-tetrahydro-1H-pyrazolo[4,3-c]pyridin-3-yl}-2-trifluoromethyl-benzylamide]",280
2,"CS(=O)(=O)N1CCc2c(c(-c3ccc(C(F)(F)F)c(CNC(=O)c4ccc(F)cc4)c3)nn2CC(O)CN2CCC(O)CC2)C1 (centres unmarked) [Example 25, 4-Fluoro-N-(5-{1-[2-hydroxy-3-(4-hydroxy-piperidin-1-yl)-propyl]-5-methanesulfonyl-4,5,6,7-tetrahydro-1H-pyrazolo[4,3-c]pyridin-3-yl}-2-trifluoromethyl-benzyl)-benzamide]",170
3,"CS(=O)(=O)N1CCc2c(c(-c3ccc(Cl)c(COCc4ccc(F)cc4)c3)nn2CCCN2CCCC2)C1 [Example 4, 3-[4-Chloro-3-(4-fluoro-benzyloxymethyl)-phenyl]-5-methanesulfonyl-1-(3-pyrrolidin-1-yl-propyl)-4,5,6,7-tetrahydro-1H-pyrazolo[4,3-c]pyridine]",1450
4,"CS(=O)(=O)N1CCc2c(c(-c3ccc(C(F)(F)F)c(CNC(=O)c4ccc(F)cc4)c3)nn2CC(O)CN2CCNC(=O)C2)C1 (centres unmarked) [Example 19, 4-Fluoro-N-(5-{1-[2-hydroxy-3-(3-oxo-piperazin-1-yl)-propyl]-5-methanesulfonyl-4,5,6,7-tetrahydro-1H-pyrazolo[4,3-c]pyridin-3-yl}-2-trifluoromethyl-benzyl)-benzamide]",330
5,"CS(=O)(=O)N1CCc2c(c(-c3ccc(C(F)(F)F)c(CNC(=O)c4ccc(F)c(F)c4)c3)nn2CC(O)CN2CCCC2)C1 (centres unmarked) [Example 60, 3,4-Difluoro-N-{5-[1-(2-hydroxy-3-pyrrolidin-1-yl-propyl)-5-methanesulfonyl-4,5,6,7-tetrahydro-1H-pyrazolo[4,3-c]pyridin-3-yl]-2-trifluoromethyl-benzyl}-benzamide]",210
6,"CC(C)=CC(=O)NCc1cc(-c2nn(CC(O)CN3CCC(O)C3)c3c2CN(S(C)(=O)=O)CC3)ccc1C(F)(F)F (centres unmarked) [Example 32, 3-Methyl-but-2-enoic acid 5-{1-[2-hydroxy-3-(3-hydroxy-pyrrolidin-1-yl)-propyl]-5-methanesulfonyl-4,5,6,7-tetrahydro-1H-pyrazolo[4,3-c]pyridin-3-yl}-2-trifluoromethyl-benzylamide]",270
7,"CC(C)=CC(=O)NCc1cc(-c2nn(CC(O)CN3CCC(F)(F)CC3)c3c2CN(S(C)(=O)=O)CC3)ccc1C(F)(F)F (centres unmarked) [Example 31, 3-Methyl-but-2-enoic acid 5-{1-[3-(4,4-difluoro-piperidin-1-yl)-2-hydroxy-propyl]-5-methanesulfonyl-4,5,6,7-tetrahydro-1H-pyrazolo[4,3-c]pyridin-3-yl}-2trifluoromethyl-benzylamide]",110
8,"CS(=O)(=O)N1CCc2c(c(-c3ccc(C(F)(F)F)c(CNC(=O)c4ccccc4O)c3)nn2CCCN2CCC3(CCNC3=O)CC2)C1 [Example 150, 2-Hydroxy-N-(5-{5-methanesulfonyl-1-[3-(1-oxo-2,8-diaza-spiro[4.5]dec-8-yl)-propyl]-4,5,6,7-tetrahydro-1H-pyrazolo[4,3-c]pyridin-3-yl}-2-trifluoromethyl-benzyl)-benzamide]",240
9,"CS(=O)(=O)N1CCc2c(c(-c3ccc(C(F)(F)F)c(CNC(=O)c4ccc(O)cc4)c3)nn2CC(O)CN2CCCC2)C1 (centres unmarked) [Example 156, 4-Hydroxy-N-{5-[1-(2-hydroxy-3-pyrrolidin-1-yl-propyl)-5-methanesulfonyl-4,5,6,7-tetrahydro-1H-pyrazolo[4,3-c]pyridin-3-yl]-2-trifluoromethyl-benzyl}-benzamide]",260

# Second part, the compound after the results:
row,IC50 [nM],Structure (SMILES)
1,370,"CC(C)CC(=O)NCc1cc(-c2nn(CC(O)CN3CCCC3)c3c2CN(S(C)(=O)=O)CC3)ccc1C(F)(F)F (centres unmarked) [Example 281, N-{5-[1-(2-Hydroxy-3-pyrrolidin-1-yl-propyl)-5-methanesulfonyl-4,5,6,7-tetrahydro-1H-pyrazolo[4,3-c]pyridin-3-yl]-2-trifluoromethyl-benzyl]-3-methyl-butyramide]"
2,50,"CC(=O)NC1CCN(CC(O)Cn2nc(-c3ccc(C(F)(F)F)c(CNC(=O)CC(C)C)c3)c3c2CCN(S(C)(=O)=O)C3)CC1 (centres unmarked) [Example 250, N-(5-{1-[3-(4-Acetylamino-piperidin-1-yl)-2-hydroxy-propyl]-5-methanesulfonyl-4,5,6,7-tetrahydro-1H-pyrazolo[4,3-c]pyridin-3-yl}-2-trifluoromethyl-benzyl)-3-methyl-butyramide]"
3,360,"CC(C)CC(=O)NCc1cc(-c2nn(CC(O)CN3CCC(NC(=O)C(F)(F)F)C3)c3c2CN(S(C)(=O)=O)CC3)ccc1C(F)(F)F (centres unmarked) [Example 280, N-[5-(1-{2-Hydroxy-3-[3-(2,2,2-trifluoro-acetylamino)-pyrrolidin-1-yl]-propyl}-5-methanesulfonyl-4,5,6,7-tetrahydro-1H-pyrazolo[4,3-c]pyridin-3-yl)-2-trifluoromethyl-benzyl]-3-methyl-butyramide]"
4,520,"CS(=O)(=O)N1CCc2c(c(-c3ccc(C(F)(F)F)c(CNC(=O)c4ccc([N+](=O)[O-])cc4)c3)nn2CC(O)CN2CCCC2)C1 (centres unmarked) [Example 212, N-{5-[1-(2-Hydroxy-3-pyrrolidin-1-yl-propyl)-5-methanesulfonyl-4,5,6,7-tetrahydro-1H-pyrazolo[4,3-c]pyridin-3-yl]-2-trifluoromethyl-benzyl}-4-nitro-benzamide]"
5,270,"CC(C)CC(=O)NCc1cc(-c2nn(CC(O)CN3CCC(O)CC3)c3c2CN(S(C)(=O)=O)CC3)ccc1C(F)(F)F (centres unmarked) [Example 245, N-(5-{1-[2-Hydroxy-3-(4-hydroxy-piperidin-1-yl)-propyl]-5-methanesulfonyl-4,5,6,7-tetrahydro-1H-pyrazolo[4,3-c]pyridin-3-yl}-2-trifluoromethyl-benzyl)-3-methyl-butyramide]"
6,1850,"CS(=O)(=O)N1CCc2c(c(-c3ccc(Cl)c(CC(=O)Nc4ccc(F)cc4)c3)nn2CCCN2CCOCC2)C1 [Example 290, 2-{2-Chloro-5-[5-methanesulfonyl-1-(3-morpholin-4-yl-propyl)-4,5,6,7-tetrahydro-1H-pyrazolo[4,3-c]pyridin-3-yl]-phenyl}-N-(4-fluoro-phenyl)-acetamide]"
